Data from PubChem BioAssay (NCI).
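48-hour exposure; five concentrations; linearly interpolated endpoints. GI50 is the concentration that inhibits growth by half. Definition used: TGI = concentration required for complete inhibition of growth.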

What was measured:
Experiment in all cases: DTP human tumour cell line panel, 48 h
A549 NSCLC = system: A549 NSCLC
HCC-2998 colon = system: HCC-2998 colon
NCI-H460 lung = system: NCI-H460 lung
NCI-H522 lung = system: NCI-H522 lung
OVCAR-8 ovarian = system: OVCAR-8 ovarian
SF-295 CNS = system: SF-295 CNS
SF-539 CNS = system: SF-539 CNS
SK-OV-3 ovarian = system: SK-OV-3 ovarian
UACC-62 melanoma = system: UACC-62 melanoma
DU-145 prostate = system: DU-145 prostate

With `CC1(c2cccc3ccccc23)OC(=O)c2ccccc21` (configuration not stated) the TGI (A549 NSCLC) was 49.7 µM, the TGI (HCC-2998 colon) was 35.6 µM and the TGI (NCI-H460 lung) was 52.8 µM. The TGI (NCI-H522 lung) was 61.4 µM, the TGI (OVCAR-8 ovarian) was > 100 µM and the TGI (SF-295 CNS) was 54.5 µM. It also gave a TGI (SF-539 CNS) of 30.2 µM, a TGI (SK-OV-3 ovarian) of 75.8 µM and a TGI (UACC-62 melanoma) of 25.6 µM.

With `CCOc1ccc(-c2nonc2NC(=O)c2cccc(C)c2)cc1OCC` the GI50 (A549 NSCLC) was > 100 µM, the TGI (A549 NSCLC) was > 100 µM and the GI50 (DU-145 prostate) was > 100 µM. The TGI (DU-145 prostate) was > 100 µM, the GI50 (HCC-2998 colon) was > 100 µM and the TGI (HCC-2998 colon) was > 100 µM. The GI50 (NCI-H460 lung) was > 100 µM, the TGI (NCI-H460 lung) was > 100 µM and the GI50 (NCI-H522 lung) was > 100 µM. For the same compound, the TGI (NCI-H522 lung) was > 100 µM, the GI50 (OVCAR-8 ovarian) was > 100 µM and the TGI (OVCAR-8 ovarian) was > 100 µM. The GI50 (SF-295 CNS) was 30.4 µM, the TGI (SF-295 CNS) was > 100 µM and the GI50 (SF-539 CNS) was 35.5 µM. The TGI (SF-539 CNS) was > 100 µM, the GI50 (SK-OV-3 ovarian) was > 100 µM and the TGI (SK-OV-3 ovarian) was > 100 µM. The GI50 (UACC-62 melanoma) was > 100 µM and the TGI (UACC-62 melanoma) was > 100 µM.

`O=C(CO)CC(=O)C(=O)Nc1ccccc1` was tested, and the TGI (A549 NSCLC) was > 100 µM, the TGI (HCC-2998 colon) was > 100 µM and the TGI (NCI-H460 lung) was > 100 µM. For the same compound, the TGI (OVCAR-8 ovarian) was > 100 µM, the TGI (SF-295 CNS) was > 100 µM and the TGI (SF-539 CNS) was > 100 µM. For the same compound, the TGI (SK-OV-3 ovarian) was > 100 µM and the TGI (UACC-62 melanoma) was > 100 µM.

With `O=C1C(Cl)=C(Nc2cccc(Cl)c2)C(=O)N1Cc1ccccc1Cl` the GI50 (A549 NSCLC) was 10.2 µM, the TGI (A549 NSCLC) was 26.5 µM and the GI50 (DU-145 prostate) was 18.2 µM. For the same compound, the TGI (DU-145 prostate) was 38.1 µM, the GI50 (NCI-H460 lung) was 11.8 µM and the TGI (NCI-H460 lung) was 27 µM. For the same compound, the GI50 (NCI-H522 lung) was 2.87 µM, the TGI (NCI-H522 lung) was 23.3 µM and the GI50 (OVCAR-8 ovarian) was 1.82 µM. The TGI (OVCAR-8 ovarian) was 17.1 µM, the GI50 (SF-295 CNS) was 0.476 µM and the TGI (SF-295 CNS) was 20.9 µM. It also gave a GI50 (SF-539 CNS) of 3.8 µM, a TGI (SF-539 CNS) of 15 µM and a GI50 (UACC-62 melanoma) of 3.05 µM. For the same compound, the TGI (UACC-62 melanoma) was 12.8 µM.

For `Fc1ccc2c(c1)c(-c1nc(-c3c[nH]c4ncccc34)cs1)cn2CCCN1CCCCC1`, the GI50 (A549 NSCLC) was 1.91 µM, the TGI (A549 NSCLC) was 3.62 µM and the GI50 (DU-145 prostate) was 1.74 µM. For the same compound, the TGI (DU-145 prostate) was 3.26 µM, the GI50 (HCC-2998 colon) was 1.7 µM and the TGI (HCC-2998 colon) was 3.14 µM. For the same compound, the GI50 (SF-539 CNS) was 1.67 µM, the TGI (SF-539 CNS) was 3.1 µM and the GI50 (SK-OV-3 ovarian) was 1.81 µM. The TGI (SK-OV-3 ovarian) was 3.43 µM.

In the case of `N#C/C(=C/c1ccc[nH]1)P(=O)(O)O`, the TGI (A549 NSCLC) is reported as > 100 µM, the TGI (HCC-2998 colon) is reported as > 100 µM and the TGI (NCI-H460 lung) is reported as > 100 µM. The TGI (NCI-H522 lung) was > 100 µM, the TGI (OVCAR-8 ovarian) was > 100 µM and the TGI (SF-295 CNS) was > 100 µM. For the same compound, the TGI (SF-539 CNS) was > 100 µM, the TGI (SK-OV-3 ovarian) was > 100 µM and the TGI (UACC-62 melanoma) was > 100 µM.

Work on `C=C1C(=O)O[C@H]2[C@H]1CC/C(Cn1cc(-c3cc(C(F)(F)F)cc(C(F)(F)F)c3)nn1)=C\CC[C@@]1(C)O[C@@H]21` yielded a GI50 (A549 NSCLC) of 1.36 µM, a TGI (A549 NSCLC) of 3.01 µM and a GI50 (DU-145 prostate) of 0.726 µM. The TGI (DU-145 prostate) was 2.02 µM, the GI50 (HCC-2998 colon) was 1.17 µM and the TGI (HCC-2998 colon) was 2.51 µM. The GI50 (NCI-H460 lung) was 1.22 µM, the TGI (NCI-H460 lung) was 2.67 µM and the GI50 (NCI-H522 lung) was 0.122 µM. It also gave a TGI (NCI-H522 lung) of 0.27 µM, a GI50 (OVCAR-8 ovarian) of 0.88 µM and a TGI (OVCAR-8 ovarian) of 2.2 µM. For the same compound, the GI50 (SF-295 CNS) was 1.19 µM, the TGI (SF-295 CNS) was 2.53 µM and the GI50 (SF-539 CNS) was 0.178 µM. The TGI (SF-539 CNS) was 0.422 µM, the GI50 (SK-OV-3 ovarian) was 1.86 µM and the TGI (SK-OV-3 ovarian) was 3.43 µM. For the same compound, the GI50 (UACC-62 melanoma) was 0.344 µM and the TGI (UACC-62 melanoma) was 1.38 µM.

In the case of `CC(=O)[C@@]1(O)CC[C@H]2[C@@H]3C[C@H](C)C4=CC(=O)CC[C@]4(C)[C@H]3[C@@H](O)C[C@@]21C`, the TGI (A549 NSCLC) is reported as > 100 µM, the TGI (DU-145 prostate) is reported as > 100 µM and the TGI (HCC-2998 colon) is reported as > 100 µM. For the same compound, the TGI (NCI-H460 lung) was > 100 µM, the TGI (NCI-H522 lung) was > 100 µM and the TGI (OVCAR-8 ovarian) was > 100 µM. For the same compound, the TGI (SF-295 CNS) was > 100 µM, the TGI (SF-539 CNS) was > 100 µM and the TGI (SK-OV-3 ovarian) was > 100 µM. For the same compound, the TGI (UACC-62 melanoma) was > 100 µM.
